“Also recorded” adds a separate entry of the source. Where two headings read alike, the source gives them in different places. Blank lines part the entries; values can stand above or below the molecule they belong to. Where a SMILES comes first, the peptide text is derived from it. Bridges are numbered along the chain shown (N, C = ends).
What was measured:
[1] = test system: GFP-LOX cells; assay: Melanoma growth and metastasis to lung and liver in nude mice co-inoculated with GFP-LOX cells; assay type: in vivo, NCR Nude mice; details: CDMWERVSRC 300 μM or control peptide 500 μM, 28 days
Protocol: Number of GFP-melanoma cells or micrometastases in lung (J) and liver (K) tissues freshly excised from animals was counted per 3×10^5 μm^2 under an epifluorescence microscope.
We next determined whether [sequence] […] GFP-tagged LOX cells, 2×10^5 cells/mouse, were co-inoculated subcutaneously with peptides into flanks of NCR Nude mice, and followed by daily injections of peptide solutions into sites 2 mm adjacent to tumors. […] GFP-tagged LOX cells, 2×10^5 cells suspended in 100 ml of serum-free DMEM, that were pre-incubated with [sequence] [SEQ ID NO: 3] (300 μM) or control peptides (500 μM) were injected subcutaneously into flanks of NCR Nude mice (female; Taconic Co., Germantown, N.Y.). In addition, [sequence] [SEQ ID NO: 3] (300 μM) and control peptides (500 μM) were daily injected into the subcutaneous tissue 2 mm adjacent to tumor sites. Total of 3 mice were used for each experimental or control group. Tumors were measured twice a week. After 28 days, mice were sacrificed by anesthetic overdose. Tissues including primary tumor, lung and liver were removed and examined for GFP tagged melanoma cells and micrometastases by epifluorescence microscopy, followed by enumeration and photography. Melanoma cells in lung and liver were calculated by counting number of GFP-melanoma cells or micrometastases in these tissues freshly excised from animals in a 3×10 μm^2 area in 10 different regions.

[2] = target: T1, seprase (Homo sapiens, UniProt Q12884); assay: Gelatinolytic activity of seprase, soluble fluorescent DQ-gelatin assay; assay type: biochemical; design: Native seprase, which was isolated from LOX cells grown on type I collagen films according to previously described procedures; endogenous in cells; host or cells: LOX human amelanotic melanoma cells; WGA-enriched fraction, immuno-captured with mAb D8; details: DQ-gelatin 25 μg/ml, 37° C., 16 hours, FIG. 1B
T1 sequence (Q12884 1-760): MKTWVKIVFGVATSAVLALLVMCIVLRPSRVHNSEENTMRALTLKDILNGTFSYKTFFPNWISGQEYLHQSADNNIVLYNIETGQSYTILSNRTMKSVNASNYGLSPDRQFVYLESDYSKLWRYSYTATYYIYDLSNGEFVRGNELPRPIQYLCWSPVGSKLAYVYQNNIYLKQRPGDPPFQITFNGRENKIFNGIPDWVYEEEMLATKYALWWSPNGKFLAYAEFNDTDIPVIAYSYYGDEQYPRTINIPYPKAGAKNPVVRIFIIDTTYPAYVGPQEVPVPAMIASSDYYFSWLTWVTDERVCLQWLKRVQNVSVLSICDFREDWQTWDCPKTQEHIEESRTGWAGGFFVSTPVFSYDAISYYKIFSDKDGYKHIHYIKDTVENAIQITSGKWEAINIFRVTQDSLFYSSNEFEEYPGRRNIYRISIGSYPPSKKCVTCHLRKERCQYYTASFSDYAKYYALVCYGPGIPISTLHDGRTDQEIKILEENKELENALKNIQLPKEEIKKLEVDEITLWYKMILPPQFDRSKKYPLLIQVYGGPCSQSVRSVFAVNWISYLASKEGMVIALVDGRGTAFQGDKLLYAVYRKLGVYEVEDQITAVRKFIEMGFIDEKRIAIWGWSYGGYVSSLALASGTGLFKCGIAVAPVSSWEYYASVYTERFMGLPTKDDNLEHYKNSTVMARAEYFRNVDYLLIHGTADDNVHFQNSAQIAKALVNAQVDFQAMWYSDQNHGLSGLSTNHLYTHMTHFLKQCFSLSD

[3] = target: matrix metalloproteinase; details: supplier information; read-out: Ki of matrix metalloproteinase inhibitor; cited from earlier work
[4] = test system: LOX cells; assay: Overall collagen degradation by cells, Bodipy FL C5 labelled type I collagen microtiter plate; assay type: cell-based, human; details: 16 hours, 37° C., FIG. 3A
Protocol: The assay involves coating 96-well microtiter plates with Bodipy FL C5 labelled type I collagen films. It allows direct measurement of collagen degradation by cells, as the release of fluorescent intensity is in proportion to the degree of collagen degradation. To prepare collagen films, collagen solution mixed with DMEM (1:4 v/v) was coated as a thin layer in each well of a 96-well microtiter plate, and incubated for 1 h at 37° C. to allow gel formation. Labeling of collagen films involved borate buffer, pH 8.3, containing 3 mg of BODIPY FL C5 (Molecular Probes) at 25° C. To determine collagen degradation by cells, LOX cells (10^4/well) were seeded in a 96-well microtiter plate pre-coated with Bodipy FL C5 labeled type I collagen, and incubated in the presence of different concentrations of inhibitors at 37° C. for 16 hours. The increase in fluorescence at 485 nm (excitation)/538 nm (emission) is proportional to the ability of cells to degrade fluorescently labeled collagen films. Change in fluorescent intensity was monitored with a fluorescence microtiter plate reader (Molecular Devices, Sunnyvale, Calif.).

[5] = target: T1, seprase; assay: Prolyl dipeptidase activity of seprase, Gly-Pro-pNA substrate; details: for inhibition of the prolyl dipeptidase activity of seprase: Gly-Pro-pNA 2 mM, different concentrations of peptides; for inhibition of seprase: FIG. 1
[6] = test system: Human ovarian cancer cells isolated from mouse ascites; assay: In vitro extracellular matrix degradation and ingestion assay on TRITC-type I collagen films; assay type: cell-based; details: at 1 mM, 16 to 24 hours
Protocol: It consists of seeding tumor cells on fluorescently labeled type I collagen films and determining the ability of tumor cells to degrade and ingest the fluorescently labeled extracellular matrix. Two inhibitors, H-Ile-Pro-NHO-PNB (DPP4-specific) and the cyclic peptide [sequence] [SEQ ID NO:3] (seprase-specific) were used. Human ovarian cancer cells isolated from mouse ascites as described in Example 7 were seeded on TRITC-type I collagen films.

[7] = test system: human ovarian tumor cells
[8] = test system: LOX cells; assay: Cell viability, apoptosis and cell death assays on collagen films; assay type: cell-based; design: dose or concentration left out as unconfirmed
Protocol: In parallel to the assay assessing the overall collagen degradation by LOX cells described above (FIG. 3A), LOX cells grown on collagen films were determined for their physiological responses to peptide or other protease inhibitors in terms of cell viability (FIG. 3B), apoptosis (FIG. 3C) and cell death (FIG. 3D). Cell viability, apoptosis and cell death assays were performed using Molecular Probes (Eugene, Oreg.) Live/Dead Viability/Cytotoxicity kit and Vybrant Apoptosis Assay Kit #4 and followed the manufacturer's instruction. LOX cells (10^4/well) were cultured on a type I collagen coated 96-well microtiter plate in the presence of inhibitors at 37° C. overnight. After washing gently with PBS, dyes for the cell viability assay (Calcein Am, 2 mM, only stained live cells) and for the apoptosis assay (YO-PRO [a fluorescent nuclear dye], 0.25 mM, stained apoptotic cells; ethidium homodimer-1, 4 mM, stained dead cells) were added and incubated at 25° C. for 45 min. The fluorescence intensity was read at the wavelength of 485 nm/538 nm or 544 nm/612 nm. In the LIVE/DEAD Viability/Cytotoxicity Assay, high fluorescent intensity indicates high number of viable cells, whereas in the Vybrant Apoptosis Assay, high fluorescent intensity units indicate high number of apoptotic or dead cells.

[9] = test system: LOX cells; assay: Peptide binding to seprase-expressing LOX cells (ELISA and immunofluorescence); assay type: cell-based, human
Protocol: (§1) It was also determined if synthetic peptides targeting seprase could bind seprase-expressing LOX cells but not seprase-negative tumor cells including the human melanoma cell line SKMEL-28.

[10] = test system: SKMEL-28 cells; assay: Peptide binding to seprase-negative SKMEL-28 cells (ELISA and immunofluorescence); assay type: cell-based, human
Protocol: as §1

[11] = target: DPP4 (Homo sapiens, UniProt P27487); details: reported values; read-out: KiDPP4 of reported DPP4 competitive inhibitors; cited from earlier work
DPP4, sequence (P27487 whole entry, species assumed): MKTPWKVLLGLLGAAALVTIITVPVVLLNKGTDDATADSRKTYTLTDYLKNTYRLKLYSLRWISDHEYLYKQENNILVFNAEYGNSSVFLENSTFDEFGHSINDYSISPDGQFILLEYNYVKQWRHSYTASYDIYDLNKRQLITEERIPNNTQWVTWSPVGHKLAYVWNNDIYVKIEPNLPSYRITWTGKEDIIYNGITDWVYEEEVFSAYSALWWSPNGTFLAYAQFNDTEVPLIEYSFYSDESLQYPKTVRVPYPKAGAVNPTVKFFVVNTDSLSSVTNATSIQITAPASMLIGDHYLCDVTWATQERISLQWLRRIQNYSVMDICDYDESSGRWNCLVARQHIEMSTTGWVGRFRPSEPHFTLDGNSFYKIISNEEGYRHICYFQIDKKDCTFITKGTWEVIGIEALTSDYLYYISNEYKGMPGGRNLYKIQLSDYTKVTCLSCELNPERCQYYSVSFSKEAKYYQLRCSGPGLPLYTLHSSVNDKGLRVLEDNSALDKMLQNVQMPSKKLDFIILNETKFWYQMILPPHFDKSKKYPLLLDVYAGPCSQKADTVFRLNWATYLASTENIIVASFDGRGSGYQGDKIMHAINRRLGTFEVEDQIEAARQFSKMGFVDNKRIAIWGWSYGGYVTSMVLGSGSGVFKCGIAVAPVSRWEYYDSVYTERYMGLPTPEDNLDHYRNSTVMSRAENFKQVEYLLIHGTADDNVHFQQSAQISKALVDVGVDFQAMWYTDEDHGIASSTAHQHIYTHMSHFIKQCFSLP

Molecule: CC(C)(C)[C@H](NC(=O)[C@H](CCCc1ccc(Cl)cc1)CC(=O)NO)C(N)=O [CT-1746]
Ki [3]: 122 nM | inhibition of overall collagen degradation by LOX cells (words) [4]: inhibited the overall collagen degradation by LOX cells in a dose dependent manner; also recorded: strongest inhibitory effect

Molecule: CSCC[C@@H]1NC(=O)[C@H](CC(=O)O)NC(=O)[C@@H](N)CSSC[C@@H](C(=O)O)NC(=O)[C@H](CCCNC(=N)N)NC(=O)[C@H](CO)NC(=O)[C@H](C(C)C)NC(=O)[C@H](CCCNC(=N)N)NC(=O)[C@H](CCC(=O)O)NC(=O)[C@H](Cc2c[nH]c3ccccc23)NC1=O (H-CDMWERVSRC-OH; disulfide 1-10 (inferred); N-terminus and C-terminus assumed)
toxicity to cells [8]: not toxic or lethal to cells | increase of catalytic Km value [5]: 5 times | inhibition at 100 µM ([5]; read-out: inhibition of seprase prolyl dipeptidase activity): > 60% | inhibition of growth in ascites and on peritoneum ([7]; mouse, in vivo, ip): more than 90%

Molecule: GGAGDMWERVSRG
binding to LOX cells [9]: strong binding | binding to SKMEL-28 cells [10]: did not bind

Molecule: N[C@@H](CCC(=O)NCC(=O)NCC(=O)NCC(=O)NCC(=O)NCC(=O)O)C(=O)N1CCSC1 [H-Glu(Gly5)-Thia]
inhibition of the prolyl dipeptidase activity of seprase ([5]; FIG. 1A): inhibit | Ki [11]: 80 nM

Molecule: DMWERVSR
inhibition of seprase [5]: potent inhibitors | activity in inhibiting seprase prolyl dipeptidase compared with other inhibitors ([5]; FIG. 1A): more active than DLDYLSKF | inhibition of the prolyl dipeptidase activity of seprase ([5]; FIG. 1A): inhibit

Molecule: RKISASEFDRPLR [control peptide]
binding to LOX cells [9]: not | binding to SKMEL-28 cells [10]: did not bind

Molecule: CCC(C)C(N)C(=O)N1CCSC1 (stereo not shown) [H-Ile-Thia]
inhibition of the gelatinolytic activity of seprase [2]: did not inhibit | inhibition of the prolyl dipeptidase activity of seprase ([5]; FIG. 1A): inhibit | Ki ([5]; read-out: Ki, prolyl dipeptidase activity of seprase, PBS pH 7.4, 37° C., 8.0 mM Gly-Pro-pNA, FIG. 1D): 100 nM

Molecule: DLDYLSKF
inhibition of seprase [5]: potent inhibitors | inhibition of the prolyl dipeptidase activity of seprase ([5]; FIG. 1A): inhibit

Second part, led by results:

inhibition of the gelatinolytic activity of seprase [2]: do not
Molecule: YISGR [control peptide]
formation of liver micrometastases [1]: did not | formation of lung micrometastases [1]: did not | formation of LOX-derived human melanoma ([1]; co-inoculated s.c. and daily injections): did not

inhibition of the prolyl dipeptidase activity of seprase ([5]; FIG. 1A): no inhibition
Molecule: GGYR

inhibition of the gelatinolytic activity of seprase [2]: did not inhibit
Molecule: CC[C@H](C)[C@H](N)C(=O)N1CCC[C@H]1C(=O)NOC(=O)c1ccc([N+](=O)[O-])cc1 [H-Ile-Pro-NHO-PNB]
inhibition of overall collagen degradation by LOX cells (words) [4]: inhibited the overall collagen degradation by LOX cells in a dose dependent manner | inhibition of overall collagen degradation by LOX cells (words) ([4]; listed as H-Ile-Pro-NHO-pNB): weak | block of degradation and ingestion of collagen film [6]: 50% | inhibition of growth in ascites and on peritoneum ([7]; i.p. human ovarian tumor cells, 8 weeks, equimolecular amounts): 50%

inhibition of the prolyl dipeptidase activity of seprase ([5]; FIG. 1A): no inhibition
Molecule: GRGTWN
inhibition of overall collagen degradation by LOX cells (words) [4]: did not

inhibitory effect relative to DMWERVSR ([5]; % of the effect of DMWERVSR, FIG. 1A): less than 10%
Molecule: REMSDWRV
inhibition of overall collagen degradation by LOX cells (words) [4]: did not
